# From patent US10407467B2, “Polymyxin derivatives and their use in combination therapy together with different antibiotics” (priority 2013, dated 2019)
# Structures can show the parent of a compound that is named as a salt. Where two headings read alike, the source gives them in different places. Numbered stars: 1 amine (or outer) side, 2 acyl side, 3 side chain; on linkers, the order of the positions; unused ones are H or OH. Bridge positions count the residues as written; N and C are the ends. Square brackets hold non-standard residues; d marks the D form. Peptide text beside a SMILES is read from it. * marks the point of attachment. ξ: configuration not given here. NHCH2(1,3-C6H4)CH2CO = O=C(Cc1cccc(CN[*:1])c1)[*:2]; ξβ3hPhg = O=C(CC(N[*:1])c1ccccc1)[*:2]; X6 = N[C@@H](CC(=O)*)c1ccc2ccccc2c1; ξβ3hGly(cHex) = NC(CC(=O)*)C1CCCCC1; Thr(3ξ) = CC(O)[C@H](N)C(=O)O; Dab = NCC[C@H](N)C(=O)O; Dap = NC[C@H](N)C(=O)O
# Experiments:
# Acinetobacter baumannii [1] = test: MIC, compound in combination with a second agent (broth microdilution); assay type: cell-based; conditions: 1:1 (wt:wt) combination with Rifampicin, MIC = total drug concentration; for MIC A. baumannii CCUG57249: strain CCUG57249; for MIC A. baumannii NCTC 13424: strain NCTC 13424; for MIC A. baumannii ATCC BAA-747: strain ATCC BAA-747; for MIC A. baumannii NCTC 13423: strain NCTC 13423
# Procedure, shortened: (§1)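 MIC values express combined concentration of test compound plus partner agent such as rifampicin, mixed at equal mass (1:1 w/w, salt-form weight). Direct colony suspensions at 0.5 McFarland, up to four strains per species, tested in duplicate; >2-fold disagreement invalid, otherwise lower value or mode of repeats reported.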
# Escherichia coli [2] = test: as above; assay type: cell-based; conditions: 1:1 (wt:wt) combination with Rifampicin, MIC = total drug concentration; for MIC E. coli ATCC25922: strain ATCC25922
# Procedure, shortened: as §1
# Klebsiella pneumoniae [3] = test: as above; assay type: cell-based; conditions: 1:1 (wt:wt) combination with Rifampicin, MIC = total drug concentration; for MIC K. pneumoniae ATCC 4352: strain ATCC 4352; for MIC K. pneumoniae CCUG-59348: strain CCUG-59348; for MIC K. pneumoniae NCTC 13438: strain NCTC 13438; for MIC K. pneumoniae ATCC-BAA-2146: strain ATCC-BAA-2146
# Procedure, shortened: as §1
# Pseudomonas aeruginosa [4] = test: as above; assay type: cell-based; conditions: 1:1 (wt:wt) combination with Rifampicin, MIC = total drug concentration; for MIC P. aeruginosa ATCC 27853: strain ATCC 27853; for MIC P. aeruginosa ATCC-47: strain ATCC-47; for MIC P. aeruginosa CCUG 59626: strain CCUG 59626; for MIC P. aeruginosa ATCC CRM-9027: strain ATCC CRM-9027
# Procedure, shortened: as §1
# Acinetobacter baumannii [5] = test: MIC, sole activity (no second agent); assay type: cell-based; conditions: in the absence of Rifampicin; for MIC A. baumannii ATCC13424: strain ATCC13424; for MIC A. baumannii CCUG57249: strain CCUG 57249; for MIC A. baumannii ATCCBAA-747: strain ATCCBAA-747
# Procedure, shortened: (§2)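 Up to four strains per species were tested in cation-adjusted Mueller-Hinton broth, with inoculum made by direct colony suspension from 18-24 hour Mueller-Hinton agar plates, adjusted to 0.5 McFarland. Duplicates differing by under 2-fold gave the lower value; greater spread voided the run. Values are relative to Polymyxin B.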
# Escherichia coli [6] = test: MIC, sole activity (no second agent); assay type: cell-based; conditions: in the absence of Rifampicin; for MIC E. coli ATCC25922: strain ATCC25922; for MIC E. coli NCTC9001: strain NCTC9001
# Procedure, shortened: as §2
# Klebsiella pneumoniae [7] = test: MIC, sole activity (no second agent); assay type: cell-based; conditions: in the absence of Rifampicin; for MIC K. pneumoniae ATCC 4352: strain ATCC 4352; for MIC K. pneumoniae CCUG-59348: strain CCUG-59348; for MIC K. pneumoniae NCTC-13438: strain NCTC-13438; for MIC K. pneumoniae ATCC-BAA2146: strain ATCC-BAA2146
# Procedure, shortened: as §2
# Pseudomonas aeruginosa [8] = test: MIC, sole activity (no second agent); assay type: cell-based; conditions: in the absence of Rifampicin; for MIC P. aeruginosa ATCC 27853: strain ATCC27853; for MIC P. aeruginosa ATCC-47: strain ATCC-47; for MIC P. aeruginosa CCUG 59626: strain CCUG 59626; for MIC P. aeruginosa ATCCCRM-9027: strain ATCCCRM-9027
# Procedure, shortened: as §2
# P. aeruginosa ATCC 27853 = conditions: for Log reduction from vehicle (CFU/g): ATCC 27853, in vivo, iv; for reduction of thigh burdens: 4 mg/kg IV three times at 1, 3.5 and 6 hours post infection
# HK-2 cell line = test: In vitro renal cell toxicity assay (resazurin reduction); assay type: cell-based, human
# [9] = 2 mg/kg IV three times at 1, 3.5 and 6 hours post infection
MIC A. baumannii CCUG57249 (Acinetobacter baumannii [1]) [micrograms/mL],MIC A. baumannii NCTC 13424 (Acinetobacter baumannii [1]) [micrograms/mL],MIC E. coli ATCC25922 (Escherichia coli [2]) [micrograms/mL],MIC K. pneumoniae CCUG-59348 (Klebsiella pneumoniae [3]) [micrograms/mL],MIC P. aeruginosa ATCC 27853 (Pseudomonas aeruginosa [4]) [micrograms/mL],MIC P. aeruginosa ATCC-47 (Pseudomonas aeruginosa [4]) [micrograms/mL],MIC P. aeruginosa CCUG 59626 (Pseudomonas aeruginosa [4]) [micrograms/mL],MIC A. baumannii ATCC13424 (Acinetobacter baumannii [5]) [micrograms/mL],MIC A. baumannii CCUG57249 (Acinetobacter baumannii [5]) [micrograms/mL],MIC E. coli ATCC25922 (Escherichia coli [6]) [micrograms/mL],MIC K. pneumoniae CCUG-59348 (Klebsiella pneumoniae [7]) [micrograms/mL],MIC P. aeruginosa ATCC 27853 (Pseudomonas aeruginosa [8]) [micrograms/mL],MIC P. aeruginosa ATCC-47 (Pseudomonas aeruginosa [8]) [micrograms/mL],MIC P. aeruginosa CCUG 59626 (Pseudomonas aeruginosa [8]) [micrograms/mL],MIC A. baumannii ATCC BAA-747 (Acinetobacter baumannii [1]) [micrograms/mL],MIC K. pneumoniae ATCC-BAA-2146 (Klebsiella pneumoniae [3]) [micrograms/mL],MIC P. aeruginosa ATCC CRM-9027 (Pseudomonas aeruginosa [4]) [micrograms/mL],MIC E. coli NCTC9001 (Escherichia coli [6]) [micrograms/mL],SMILES,"Log reduction from vehicle (CFU/g) (P. aeruginosa ATCC 27853; 2 mg/kg, 6 h) [log CFU/g]","Log reduction from vehicle (CFU/g) (P. aeruginosa ATCC 27853; 4 mg/kg, 6 h) [log CFU/g]",also measured
0.5,0.5,0.25,2,0.25,0.5,0.5,4,4,2,>8,0.125,2,0.25,,,,,"CC(C)C[C@@H]1NC(=O)[C@@H](Cc2ccccc2)NC(=O)[C@H](CCN)NC(=O)[C@@H](NC(=O)[C@H](CCN)NC(=O)[C@@H](NC(=O)C(O)C2CCCCC2)C(C)O)CCNC(=O)[C@H](C(C)O)NC(=O)[C@H](CCN)NC(=O)[C@H](CCN)NC1=O (mixture of isomers) [Example 27, 2-(RS)-(2-Hydroxy-2-cyclohexyl)ethanoyl polymyxin B nonapeptide]",0.24,−0.58,"MIC K. pneumoniae ATCC 4352 (Klebsiella pneumoniae [3]): 0.125 micrograms/mL; MIC K. pneumoniae NCTC 13438 (Klebsiella pneumoniae [3]): 0.5 micrograms/mL; MIC K. pneumoniae ATCC 4352 (Klebsiella pneumoniae [7]): 2 micrograms/mL; MIC K. pneumoniae NCTC-13438 (Klebsiella pneumoniae [7]): >8 micrograms/mL; effect on thigh burdens (P. aeruginosa ATCC 27853; 2 or 4 mg/kg IV three times at 1, 3.5 and 6 hours post infection): did not reduce thigh burdens significantly"
0.125,0.125,0.125,2,0.125,0.5,0.25,1,1,,>32,,1,0.5,0.125,0.5,0.5,32,"CC(C)C[C@@H]1NC(=O)[C@@H](Cc2ccccc2)NC(=O)[C@H](CCN)NC(=O)[C@@H](NC(=O)[C@H](CCN)NC(=O)[C@@H](NC(=O)CC(N)c2ccccc2)C(C)O)CCNC(=O)[C@H](C(C)O)NC(=O)[C@H](CCN)NC(=O)[C@H](CCN)NC1=O (stereo partly drawn) [Example 28, [3-(R,S)-3-Amino-3-phenylpropanoyl] Polymyxin B nonapeptide] (ξβ3hPhg-[Thr(3ξ)][Dab][Dab][Dab][dF]L[Dab][Dab][Thr(3ξ)]; lactam 3-C)",,,"MIC A. baumannii NCTC 13423 (Acinetobacter baumannii [1]): ≤0.06 micrograms/mL; MIC K. pneumoniae NCTC 13438 (Klebsiella pneumoniae [3]): 0.25 micrograms/mL; MIC K. pneumoniae ATCC-BAA2146 (Klebsiella pneumoniae [7]): 32 micrograms/mL; MIC K. pneumoniae NCTC-13438 (Klebsiella pneumoniae [7]): 32 micrograms/mL; Log reduction from vehicle (CFU/g) (P. aeruginosa ATCC 27853; 2 mg/kg, 9 h): −0.38 log CFU/g; Log reduction from vehicle (CFU/g) (P. aeruginosa ATCC 27853; 4 mg/kg, 9 h): 0.20 log CFU/g"
0.25,0.25,0.5,2,0.25,0.25,0.5,1,4,4,>32,0.25,0.25,0.125,0.25,0.5,0.5,8,"CC(C)C[C@@H]1NC(=O)[C@@H](Cc2ccccc2)NC(=O)[C@H](CCN)NC(=O)[C@@H](NC(=O)[C@H](CCN)NC(=O)[C@@H](NC(=O)C[C@H](N)c2ccc3ccccc3c2)C(C)O)CCNC(=O)[C@H](C(C)O)NC(=O)[C@H](CCN)NC(=O)[C@H](CCN)NC1=O (stereo partly drawn) [Example 38, (S)-3-Amino-3-(naphthalene-2-yl)propanoyl polymyxin B nonapeptide, trifluoroacetate salt] (X6-[Thr(3ξ)][Dab][Dab][Dab][dF]L[Dab][Dab][Thr(3ξ)]; lactam 3-C)",−0.37,4.94,MIC A. baumannii ATCCBAA-747 (Acinetobacter baumannii [5]): 0.5 micrograms/mL; MIC K. pneumoniae ATCC-BAA2146 (Klebsiella pneumoniae [7]): 8 micrograms/mL; MIC P. aeruginosa ATCCCRM-9027 (Pseudomonas aeruginosa [8]): 0.25 micrograms/mL; effect on thigh burdens (P. aeruginosa ATCC 27853; [9]): did not affect thigh burdens significantly; reduction of thigh burdens (P. aeruginosa ATCC 27853): 4.9 Log10 CFU/g
≤0.06,0.125,≤0.06,,0.125,0.125,0.125,1,0.25,4,>32,≤0.06,0.25,0.125,≤0.06,0.25,0.125,4,"CC(C)C[C@@H]1NC(=O)[C@@H](Cc2ccccc2)NC(=O)[C@H](CCN)NC(=O)[C@@H](NC(=O)[C@H](CN)NC(=O)[C@@H](NC(=O)CC(N)C2CCCCC2)C(C)O)CCNC(=O)[C@H](C(C)O)NC(=O)[C@H](CCN)NC(=O)[C@H](CCN)NC1=O (stereo partly drawn) [Example 47, [3-Amino-3-cyclohexyl-propionyl]-L-Thr-L-Dap-polymyxin B heptapeptide, TFA salt] ({ξβ3hGly(cHex)}-[Thr(3ξ)][Dap][Dab][Dab][dF]L[Dab][Dab][Thr(3ξ)]; lactam 3-C)",−0.09,1.07,MIC A. baumannii NCTC 13423 (Acinetobacter baumannii [1]): 0.125 micrograms/mL; MIC E. coli NCTC9001 (Escherichia coli [2]; strain NCTC9001): 0.125 micrograms/mL; MIC K. pneumoniae ATCC 4352 (Klebsiella pneumoniae [3]): 0.125 micrograms/mL; MIC A. baumannii ATCCBAA-747 (Acinetobacter baumannii [5]): 0.5 micrograms/mL; MIC A. baumannii NCTC 13423 (Acinetobacter baumannii [5]; strain NCTC13423): 0.5 micrograms/mL; MIC K. pneumoniae ATCC 4352 (Klebsiella pneumoniae [7]): 0.5 micrograms/mL; MIC K. pneumoniae ATCC-BAA2146 (Klebsiella pneumoniae [7]): 0.5 micrograms/mL; MIC P. aeruginosa ATCCCRM-9027 (Pseudomonas aeruginosa [8]): ≤0.06 micrograms/mL; effect on thigh burdens (P. aeruginosa ATCC 27853; [9]): did not affect thigh burdens significantly; reduction of thigh burdens (P. aeruginosa ATCC 27853): 1.1 Log10 CFU/g
,,,,,,,,,,,,,,,,,,"CC(C)C[C@@H]1NC(=O)[C@@H](Cc2ccccc2)NC(=O)[C@H](CCN)NC(=O)[C@@H](NC(=O)[C@H](CCN)NC(=O)[C@@H](NC(=O)Cc2cccc(CN)c2)C(C)O)CCNC(=O)[C@H](C(C)O)NC(=O)[C@H](CCN)NC(=O)[C@H](CCN)NC1=O (some centres unmarked) [Example A1, 2-(3-(Aminomethyl)phenyl) ethanoyl polymyxin B nonapeptide] ({NHCH2(1,3-C6H4)CH2CO}-[Thr(3ξ)][Dab][Dab][Dab][dF]L[Dab][Dab][Thr(3ξ)]; lactam 3-C)",,,HK-2 IC50 rel to PMB (HK-2 cell line): 8
